ChEMBL document CHEMBL1135560, “Parallel synthesis and anti-malarial activity of a sulfonamide library” (Bioorg Med Chem Lett, 2002)

The compounds below were run on Plasmodium falciparum (assay: Growth inhibition of Plasmodium falciparum at 10 nM).
Type: functional
With `O=S(=O)(NCCCN1CCN(CCCNc2ccnc3cc(Cl)ccc23)CC1)c1ccc(Cl)cc1` the inhibition at 0.01 µM was 26%. For `O=S(=O)(NCCCN1CCN(CCCNc2ccnc3cc(Cl)ccc23)CC1)c1ccc(F)cc1`, the inhibition at 0.01 µM was 20%. For `O=S(=O)(/C=C/c1ccccc1)NCCCN1CCN(CCCNc2ccnc3cc(Cl)ccc23)CC1`, the inhibition at 0.01 µM was 0%. In the case of `CCS(=O)(=O)NCCCN1CCN(CCCNc2ccnc3cc(Cl)ccc23)CC1`, the inhibition at 0.01 µM is reported as 1%. `CC(C)S(=O)(=O)NCCCN1CCN(CCCNc2ccnc3cc(Cl)ccc23)CC1` was tested, and the inhibition at 0.01 µM was 25%. `O=S(=O)(Cc1ccccc1)NCCCN1CCN(CCCNc2ccnc3cc(Cl)ccc23)CC1` was tested, and the inhibition at 0.01 µM was 4%. For `O=[N+]([O-])c1ccccc1S(=O)(=O)NCCCN1CCN(CCCNc2ccnc3cc(Cl)ccc23)CC1`, the inhibition at 0.01 µM was 0%. `COc1ccc(Br)cc1S(=O)(=O)NCCCN1CCN(CCCNc2ccnc3cc(Cl)ccc23)CC1` was tested, and the inhibition at 0.01 µM was 64%. For `O=S(=O)(NCCCN1CCN(CCCNc2ccnc3cc(Cl)ccc23)CC1)c1cc(C(F)(F)F)ccc1Cl`, the inhibition at 0.01 µM was 60%. With `Cc1ccc([N+](=O)[O-])cc1S(=O)(=O)NCCCN1CCN(CCCNc2ccnc3cc(Cl)ccc23)CC1` the inhibition at 0.01 µM was 56%. In the case of `O=[N+]([O-])c1cccc(S(=O)(=O)NCCCN2CCN(CCCNc3ccnc4cc(Cl)ccc34)CC2)c1`, the inhibition at 0.01 µM is reported as 48%. Work on `Cc1ccc(S(=O)(=O)NCCCN2CCN(CCCNc3ccnc4cc(Cl)ccc34)CC2)cc1` yielded an inhibition at 0.01 µM of 54%. In the case of `O=S(=O)(NCCCN1CCN(CCCNc2ccnc3cc(Cl)ccc23)CC1)c1ccccc1F`, the inhibition at 0.01 µM is reported as 11%. Work on `CC(=O)c1cccc(S(=O)(=O)NCCCN2CCN(CCCNc3ccnc4cc(Cl)ccc34)CC2)c1` yielded an inhibition at 0.01 µM of 22%.

Each compound was assayed on Plasmodium falciparum (assay: Antimalarial activity against chloroquine-resistant Plasmodium falciparum FcB1).
Type: functional, organism-based
`Clc1ccc2c(NCCCN3CCN(CCCNc4ccnc5cc(Cl)ccc45)CC3)ccnc2c1` gave an IC50 of 0.112 µM.

What follows are compounds tested on MRC5 (assay: Cytotoxicity tests were performed on a human diploid embryonic lung cell line (MRC5) using the colorimetric MTT assay).
Type: functional, cell-based
`CCN(CC)CCCC(C)Nc1ccnc2cc(Cl)ccc12` (stereo unspecified) [CHLOROQUINE] gave an IC50 of 50 µM.
